Tested on: ATF4 luciferase reporter in HEK293T cells
Assay: ATF4-Luc assay (in vitro model of VWMD)
Format: cell-based, human
Details: HEK293T cells carrying the ATF4 luciferase reporter, 1 μg/mL tunicamycin, One Glo luminescence
In short: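 Stable HEK293T line expressing firefly luciferase behind the human ATF4 5′-UTR, treated with 1 μg/mL tunicamycin plus compound for 7 hours. Luminescence read with One Glo; EC50 determined.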

SMILES | EC50 (Homo sapiens, HEK-293T, 7 h) [µM] | EC50 (7 hours) [µM]
COc1ccc2nn(C34CC(NC(=O)[C@H]5C[C@@H](O)c6cc(C(F)(F)F)c(F)cc6O5)(C3)C4)cc2n1 (racemic) [Compound 655, rac-(2R,4R)-7-fluoro-4-hydroxy-N-[3-(5-methoxy-2H-pyrazolo[4,3-b]pyridin-2-yl)bicyclo[1.1.1]pentan-1-yl]-6-(trifluoromethyl)-3,4-dihydro-2H-1-benzopyran-2-carboxamide] | < 0.01 | –
O=C(NC12CC(n3cnc(C(=O)N4CC[C@@H](OC(F)(F)F)C4)c3)(C1)C2)[C@H]1C[C@@H](O)c2cc(Cl)ccc2O1 [Compound 321, (2R,4R)-6-chloro-4-hydroxy-N-(3-{4-[(3R)-3-(trifluoromethoxy)pyrrolidine-1-carbonyl]-1H-imidazol-1-yl}bicyclo[1.1.1]pentan-1-yl)-3,4-dihydro-2H-1-benzopyran-2-carboxamide] | 0.01 to 0.05 | –
O=C(NC12CC(n3cc(OCCOC(F)(F)F)cn3)(C1)C2)[C@H]1C[C@@H](O)c2cc(C(F)(F)F)c(F)cc2O1 [Compound 483, (2R,4R)-7-fluoro-4-hydroxy-N-(3-{4-[2-(trifluoromethoxy)ethoxy]-1H-pyrazol-1-yl}bicyclo[1.1.1]pentan-1-yl)-6-(trifluoromethyl)-3,4-dihydro-2H-1-benzopyran-2-carboxamide] | < 0.01 | –
O=C(NC12CC(n3cc(OCCCOC(F)(F)F)cn3)(C1)C2)[C@H]1C[C@@H](O)c2cc(Cl)c(F)cc2O1 [Compound 433, (2R,4R)-6-chloro-7-fluoro-4-hydroxy-N-(3-{4-[3-(trifluoromethoxy)propoxy]-1H-pyrazol-1-yl}bicyclo[1.1.1]pentan-1-yl)-3,4-dihydro-2H-1-benzopyran-2-carboxamide] | < 0.01 | –
O=C(NC12CC(c3cnc(OCCOC(F)(F)F)o3)(C1)C2)[C@H]1C[C@@H](O)c2cc(Cl)ccc2O1 [Compound 414, (2R,4R)-6-chloro-4-hydroxy-N-(3-{2-[2-(trifluoromethoxy)ethoxy]-1,3-oxazol-5-yl}bicyclo[1.1.1]pentan-1-yl)-3,4-dihydro-2H-1-benzopyran-2-carboxamide] | < 0.01 | –
O=C(N[C@H]1C[C@@H](OC(F)(F)F)C1)c1cnn(C23CC(NC(=O)[C@H]4C[C@@H](O)c5cc(Cl)ccc5O4)(C2)C3)c1 [Compound 376, 1-(3-{[(2R,4R)-6-chloro-4-hydroxy-3,4-dihydro-2H-1-benzopyran-2-carbonyl]amino}bicyclo[1.1.1]pentan-1-yl)-N-[cis-3-(trifluoromethoxy)cyclobutyl]-1H-pyrazole-4-carboxamide] | 0.05 to 0.25 | –
O=C(COc1ccc(Cl)c(F)c1)N[C@H]1CC[C@H](n2cc(OCCOC(F)(F)F)cn2)CC1 [Compound 457, 2-(4-chloro-3-fluorophenoxy)-N-[(1r,4r)-4-{4-[2-(trifluoromethoxy)ethoxy]-1H-pyrazol-1-yl}cyclohexyl]acetamide] | < 0.01 | –
O=C(NC12CC(c3nnc(OCCOC(F)(F)F)o3)(C1)C2)[C@H]1C[C@@H](O)c2cc(Cl)ccc2O1 [Compound 468, (2R,4R)-6-chloro-4-hydroxy-N-(3-{5-[2-(trifluoromethoxy)ethoxy]-1,3,4-oxadiazol-2-yl}bicyclo[1.1.1]pentan-1-yl)-3,4-dihydro-2H-1-benzopyran-2-carboxamide] | < 0.01 | –
O=C(COc1ccc(Cl)c(F)c1)NC12CC(n3cc(OCCCOC(F)(F)F)cn3)(C1)C2 [Compound 607, 2-(4-chloro-3-fluorophenoxy)-N-(3-{4-[3-(trifluoromethoxy)propoxy]-1H-pyrazol-1-yl}bicyclo[1.1.1]pentan-1-yl)acetamide] | – | < 0.01
O=C(NC12CC(n3cc(-c4ccc(C(F)F)cn4)cn3)(C1)C2)[C@H]1C[C@@H](O)c2cc(Cl)c(F)cc2O1 [Compound 569, (2R,4R)-6-chloro-N-(3-{4-[5-(difluoromethyl)pyridin-2-yl]-1H-pyrazol-1-yl}bicyclo[1.1.1]pentan-1-yl)-7-fluoro-4-hydroxy-3,4-dihydro-2H-1-benzopyran-2-carboxamide] | < 0.01 | –
O=C(NC12CC(n3cc([C@@H]4C[C@H]4COC(F)(F)F)nn3)(C1)C2)[C@H]1C[C@@H](O)c2cc(Cl)ccc2O1 (mixture of isomers) [Compound 542, (2R,4R)-6-chloro-4-hydroxy-N-[3-(4-{(1RS,2RS)-2-[(trifluoromethoxy)methyl]cyclopropyl}-1H-1,2,3-triazol-1-yl)bicyclo[1.1.1]pentan-1-yl]-3,4-dihydro-2H-1-benzopyran-2-carboxamide] | < 0.01 | –
O=C(NC12CC(n3cc(-c4ccc(OC(F)(F)F)c(F)c4)cn3)(C1)C2)[C@H]1C[C@@H](O)c2cc(Cl)ccc2O1 [Compound 312, (2R,4R)-6-chloro-N-(3-{4-[3-fluoro-4-(trifluoromethoxy)phenyl]-1H-pyrazol-1-yl}bicyclo[1.1.1]pentan-1-yl)-4-hydroxy-3,4-dihydro-2H-1-benzopyran-2-carboxamide] | < 0.01 | –
O=C(COc1ccc(Cl)c(F)c1)NC12CC(c3ccnc(OCCCOC(F)(F)F)c3)(C1)C2 [Compound 602, 2-(4-chloro-3-fluorophenoxy)-N-(3-{2-[3-(trifluoromethoxy)propoxy]pyridin-4-yl}bicyclo[1.1.1]pentan-1-yl)acetamide] | – | < 0.01
O=C(N[C@H]1CC[C@H](n2cc(OCCOC(F)(F)F)cn2)CC1)[C@H]1C[C@@H](O)c2cc(Cl)c(F)cc2O1 [Compound 419, (2R,4R)-6-chloro-7-fluoro-4-hydroxy-N-[(1r,4R)-4-{4-[2-(trifluoromethoxy)ethoxy]-1H-pyrazol-1-yl}cyclohexyl]-3,4-dihydro-2H-1-benzopyran-2-carboxamide] | < 0.01 | –
O=C(NC12CC(n3cc(-c4ccc(OC(F)(F)F)cn4)cn3)(C1)C2)[C@H]1C[C@@H](O)c2cc(F)c(F)cc2O1 [Compound 369, (2R,4R)-6,7-difluoro-4-hydroxy-N-(3-{4-[5-(trifluoromethoxy)pyridin-2-yl]-1H-pyrazol-1-yl}bicyclo[1.1.1]pentan-1-yl)-3,4-dihydro-2H-1-benzopyran-2-carboxamide] | < 0.01 | –
O=C(NC12CC(n3cc(OCCOC(F)(F)F)cn3)(C1)C2)[C@H]1C[C@@H](O)c2cc(F)c(F)cc2O1 [Compound 429, (2R,4R)-6,7-difluoro-4-hydroxy-N-(3-{4-[2-(trifluoromethoxy)ethoxy]-1H-pyrazol-1-yl}bicyclo[1.1.1]pentan-1-yl)-3,4-dihydro-2H-1-benzopyran-2-carboxamide] | < 0.01 | –
O=C(COc1ccc(Cl)c(F)c1)NC12CC(n3cc([C@H]4C[C@@H](OC(F)(F)F)C4)nn3)(C1)C2 [Compound 620, 2-(4-chloro-3-fluorophenoxy)-N-(3-{4-[(1s,3s)-3-(trifluoromethoxy)cyclobutyl]-1H-1,2,3-triazol-1-yl}bicyclo[1.1.1]pentan-1-yl)acetamide] | < 0.01 | –
O=C(NC12CC(n3cc(OCCCC(F)(F)F)cn3)(C1)C2)[C@H]1CC(O)c2cc(Cl)c(F)cc2O1 (stereo in doubt) [Compound 464, (2R,4R)-6-chloro-7-fluoro-4-hydroxy-N-{3-[4-(4,4,4-trifluorobutoxy)-1H-pyrazol-1-yl]bicyclo[1.1.1]pentan-1-yl}-3,4-dihydro-2H-1-benzopyran-2-carboxamide] | < 0.01 | –

— US20250145594A1, “MODULATORS OF THE INTEGRATED STRESS PATHWAY” (Calico Life Sciences LLC, priority 2020, published 2025)
